Each structure is given as a SMILES string.

The subject of this assay is HCV 1b genotype replicon. Kind of assay: HCV genotype-1b replicon assay (qRT-PCR or luciferase). The note with it: Hepatitis C virus, read-out: Genotype-1b replicon EC50 Range. Type of assay: cell-based. An excerpt:
HCV replicon cell lines (kindly provided by R. Bartenschlager) isolated from colonies as described by Lohman et. al. (Lohman et al. (1999) Science 285: 110-113, expressly incorporated by reference in its entirety) and used for all experiments. The HCV replicon has the nucleic acid sequence set forth in EMBL Accession No.: AJ242651, the coding sequence of which is from nucleotides 1801 to 8406.
The coding sequence of the published HCV replicon was synthesized and subsequently assembled in a modified plasmid pBR322 (Promega, Madison, Wis.) using standard molecular biology techniques. […]
EC50 values of single agent compounds and combinations were determined by HCV RNA detection using quantitative RT-PCR, according to the manufacturer's instructions, with a TAQMAN® One-Step RT-PCR Master Mix Reagents Kit (Cat # AB 4309169, Applied Biosystems) on an ABI Model 7500 thermocycler. The TaqMan primers used for detecting and quantifying HCV RNA were obtained from Integrated DNA Technologies. HCV RNA was normalized to GAPDH RNA levels in drug-treated cells, which was detected and quantified using the Human GAPDH Endogenous Control Mix (Applied Biosystems, AB 4310884E). […] Chemical agent cytotoxicity was evaluated using an MTS assay according to the manufacturer's directions (Promega). […]

In the case of `COC(=O)N[C@H](C(=O)N1CCC(C(=O)Nc2ccc(-c3ccc(NC(=O)C4CCN(C(=O)[C@@H](NC(=O)OC)C(C)C)C4)cc3)cc2)C1)C(C)C` (stereo partly shown) [Example 295], the EC50 is over 10 nM.

(Values after patent publication US8703938B2, “Hepatitis C virus inhibitors” (Enanta Pharmaceuticals, Inc., priority 2009, dated 2014).)
